Test results taken from patent publication US7396554B2, “Antioxidant sesame extract” (Council of Scientific & Industrial Research, priority 2002, dated 2008).

What was measured:
[1] = DPPH radical quenching / free radical scavenging test; assay type: biochemical; settings: Conc. of antioxidant 20 μM
Description: The radical quenching efficiency of the extract was also tested by widely reported standard methods like di-phenyl picryl hydrazyl (DPPH) radical according to the methods of W. Brand Williams, M. E. Cuvelier and C. Berset, Lebesm.-Wiss.

[2] = DSC oxidative stability of soybean oil, isothermal 150° C. under oxygen flow; settings: soybean oil stored one week at 60° C.; antioxidant 200 mg per Kg of oil
Text: DSC experiments: Differential Scanning Calorimeter. The Mettler Toledo instrument used for carrying out the studies, is configured to follow oxidative stability of vegetable oils at a desired higher temperature under oxygen flow. […] With the help of an inbuilt program of the instrument, the induction period in ‘time-units’ could be calculated. This is indicated in the diagram as ‘onset’ time. Longer ‘onset’ time indicates better protection. […] DSC profiles of purified sesame extracts have been included here. In FIG. 6, the oxidative stability of soybean oil stored at 60° C. for 7 days has been depicted. (The storage study continued for one month. The extent of protection as measured in DSC was studied here.). Each experiment such as Control alone, (soybean oil+BHT), (oil+TBHQ), (oil+Sesame extract at 10 ppm, 50 ppm, 200 ppm) etc were carried out separately. For comparison sake, the different profiles have been overlaid in the same figure. In FIG. 6, the concentrations of BHT and TBHQ are 200 mg per Kg. of oil. For comparison, the profile of oil containing sesame extract at 50 ppm is also depicted in the overlaid diagram. […]

[3] = DSC oxidative stability of safflower oil, isothermal 150° C. under oxygen flow; settings: fresh safflower oil; antioxidant 200 mg per Kg of oil
Text: DSC experiments: Differential Scanning Calorimeter. The Mettler Toledo instrument used for carrying out the studies, is configured to follow oxidative stability of vegetable oils at a desired higher temperature under oxygen flow. […] With the help of an inbuilt program of the instrument, the induction period in ‘time-units’ could be calculated. This is indicated in the diagram as ‘onset’ time. Longer ‘onset’ time indicates better protection. […] DSC profiles of purified sesame extracts have been included here. As explained elsewhere, the Figure represents overlaid DSC profiles of safflower oil containing synthetic and sesame antioxidants at few select concentrations. The onset time has been recorded in the printout of the profile. The oxidative stability of vegetable oils containing synthetic antioxidants (BHT and TBHQ at 50-200 ppm) and sesame extract at different levels 3 to 1000 ppm were also tested in the Differential Scanning Calorimeter (Mettler Toledo, model 821) under flow of oxygen (40 ml/min.). The heating regime followed was isothermal at 150° C. and from the curves obtained (FIGS. 6, 7), the ‘onset-time’ of oxidative changes under identical conditions could be found out by making use of an inbuilt program of the instrument, the induction period represented by the onset time, can be correlated with the onset of rancidity.

rats = settings: Nobuyuki Ito 1982, cited via U.S. Pat. No. 5,043,100; cited from earlier work

Row | Compound | Free radical Scavenging Effect after 30 min. [1] | DSC onset time [2] [min] | DSC onset time [3] [min] | carcinogenicity (rats)
1 | Catechin | 98.51 | – | – | –
2 | CC(C)(C)c1cc(O)ccc1O [TBHQ, tert-Butyl Hydro Quinone] | 98.88 | 20.48 | 10.01 | –
3 | Cc1cc(C(C)(C)C)c(O)c(C(C)(C)C)c1 [BHT, Butylated Hydroxy Toluene] | 81.61 | 7.30 | 7.23 | –
4 | COc1ccc(O)c(C(C)(C)C)c1 [BHA, Butylated Hydroxy Anisole] | – | – | – | carcinogenic in rats
5 | O=C(OC[C@H]1O[C@@H](OC(=O)c2cc(O)c(O)c(OC(=O)c3cc(O)c(O)c(O)c3)c2)[C@H](OC(=O)c2cc(O)c(O)c(OC(=O)c3cc(O)c(O)c(O)c3)c2)[C@@H](OC(=O)c2cc(O)c(O)c(OC(=O)c3cc(O)c(O)c(O)c3)c2)[C@@H]1OC(=O)c1cc(O)c(O)c(OC(=O)c2cc(O)c(O)c(O)c2)c1)c1cc(O)c(O)c(OC(=O)c2cc(O)c(O)c(O)c2)c1 [Tannic Acid] | 98.88 | – | – | –
